According to patent US12215085B2 (priority 2019, dated 2025):

Assays:
[1] = system: rats with common carotid artery occlusion-induced vascular dementia; experiment: Step-down test, common carotid artery occlusion-induced vascular dementia rats; type: in vivo, rat; details: step-down method, x ± s, succinate
Text: A rat blood vessel dementia model was made according to the references [ZHAO Xian-lin, FANG Xiu-bin, LI Dong-pei. Establishment of Vascular Dementia Model in Rats, J Chin Med Univ, 2002, 31 (3): 166-168; WANG Yong-yan, Zhang Bo-li, Editor-in-chief. Modern Chinese Medicine Clinic and Research on Vascular Dementia, People's Medical Publishing House, October 2003, First Version 214]: Chloral hydrate 0.4 g/kg was intraperitoneally injected for anesthetizing rats, and bilateral common carotid arteries were isolated and ligated. The animals were fed for 16 weeks, divided into groups on the last 7 days, and administered. The normal control group and the model group were administrated through the intragastric route with distilled water by 0.5 ml/100 g, the positive control group was administrated through the intragastric route with donepezil hydrochloride by 1.75 mg/kg (equivalent to 3.85 times the clinical daily dosage of 5 mg/70 kg), the low, medium and high-dose groups of Crystal Form A of octahydroaminoacridine succinate were administrated through the intragastric route with Crystal Form A of octahydroaminoacridine succinate by 0.7, 1.4 and 2.8 mg/kg (equivalent to 0.96, 1.92 and 3.85 times the clinical daily dosage of 8 mg/70 kg). The water maze test and the step-down test were carried out after continuous administration for 7 days, and the administration was continued during the test period. The water maze test was continuously performed for 7 days, in the first 6 days, in four different water entry points of quadrants 1, 2, 3 and 4, the time, the swimming path length, the orientation angle and the average speed of the rat reaching the platform were measured, meanwhile, the strategy for reaching the platform adopted by rats was observed, on the 7th day, the platform was removed, the number of rats crossing the platform in 2 minutes, the residence time in the platform area, the residence time in the platform quadrants, the percentage of the swimming path length in the platform area quadrants to the total swimming path length, the average speed and the orientation angle were measured. After the water maze test was finished, the step-down test was performed, and the number of electric shocks (or called as the error number) received by each rat within 5 minutes was recorded as the learning performance. The test was performed again after 24 hours, namely, the memory retention test, and the latent period for stepping-down the platform for the first time and the error number in five minutes were recorded. After the step-down test was finished, the brain was taken quickly for pathological examination, and the pathological changes of the hippocampus and the cortex were observed.

[2] = system: rats with beta-amyloid induced senile dementia; experiment: Water maze test, beta-amyloid induced senile dementia rats; type: in vivo, rat; details: succinate; for orientation angle for reaching the platform / speed for reaching the platform / swimming path length for reaching the platform / time for reaching the platform: x ± s
[3] = 0.7 mg/kg intragastric, 0.7 mg/kg
[4] = 1.4 mg/kg intragastric, 1.4 mg/kg
[5] = 2.8 mg/kg intragastric, 2.8 mg/kg
[6] = Day 1, 0.7 mg/kg intragastric, 0.7 mg/kg
[7] = Day 1, 1.4 mg/kg intragastric, 1.4 mg/kg
[8] = Day 1, 2.8 mg/kg intragastric, 2.8 mg/kg
[9] = Day 2, 0.7 mg/kg intragastric, 0.7 mg/kg
[10] = Day 2, 1.4 mg/kg intragastric, 1.4 mg/kg
[11] = Day 2, 2.8 mg/kg intragastric, 2.8 mg/kg
[12] = Day 3, 0.7 mg/kg intragastric, 0.7 mg/kg
[13] = Day 3, 1.4 mg/kg intragastric, 1.4 mg/kg
[14] = Day 3, 2.8 mg/kg intragastric, 2.8 mg/kg
[15] = Day 4, 0.7 mg/kg intragastric, 0.7 mg/kg
[16] = Day 4, 1.4 mg/kg intragastric, 1.4 mg/kg
[17] = Day 4, 2.8 mg/kg intragastric, 2.8 mg/kg
[18] = Day 5, 0.7 mg/kg intragastric, 0.7 mg/kg
[19] = Day 5, 1.4 mg/kg intragastric, 1.4 mg/kg
[20] = Day 5, 2.8 mg/kg intragastric, 2.8 mg/kg
[21] = Day 6, 0.7 mg/kg intragastric, 0.7 mg/kg
[22] = Day 6, 1.4 mg/kg intragastric, 1.4 mg/kg
[23] = Day 6, 2.8 mg/kg intragastric, 2.8 mg/kg

Nc1c2c(nc3c1CCCC3)CCCC2.O=C(O)CCC(=O)O [Crystal Form K, 9-amino-1,2,3,4,5,6,7,8-octahydroacridine succinate]
Day 1, Error number [1, 3]: 9.21 ± 4.52 | Day 2, Error latency [1, 3]: 146.89 ± 60.45 s | Day 2, Error number [1, 3]: 2.49 ± 2.35 | Day 1, Error number [1, 4]: 8.34 ± 3.78 | Day 2, Error latency [1, 4]: 178.46 ± 52.77 s | Day 2, Error number [1, 4]: 3.34 ± 1.49 | Day 1, Error number [1, 5]: 8.46 ± 4.68 | Day 2, Error latency [1, 5]: 192.55 ± 87.48 s | Day 2, Error number [1, 5]: 3.41 ± 1.88 | adopted strategy for reaching the platform (the peripheral type and the random type %) [2, 6]: 95.24% | orientation angle for reaching the platform [2, 6]: 72.32 ± 21.32 ° | speed for reaching the platform [2, 6]: 18.56 ± 4.91 cm/s | swimming path length for reaching the platform [2, 6]: 1196.20 ± 260.35 cm | time for reaching the platform [2, 6]: 70.00 ± 14.73 s | adopted strategy for reaching the platform (the peripheral type and the random type %) [2, 7]: 94.82% | orientation angle for reaching the platform [2, 7]: 71.28 ± 13.47 ° | speed for reaching the platform [2, 7]: 18.24 ± 6.88 cm/s | swimming path length for reaching the platform [2, 7]: 1151.50 ± 313.31 cm | time for reaching the platform [2, 7]: 70.50 ± 14.60 s | adopted strategy for reaching the platform (the peripheral type and the random type %) [2, 8]: 93.17% | orientation angle for reaching the platform [2, 8]: 68.37 ± 20.14 ° | speed for reaching the platform [2, 8]: 19.42 ± 5.93 cm/s | swimming path length for reaching the platform [2, 8]: 1188.50 ± 273.99 cm | time for reaching the platform [2, 8]: 66.90 ± 11.45 s | adopted strategy for reaching the platform (the peripheral type and the random type %) [2, 9]: 79.34% | orientation angle for reaching the platform [2, 9]: 62.15 ± 19.37 ° | speed for reaching the platform [2, 9]: 19.44 ± 9.85 cm/s | swimming path length for reaching the platform [2, 9]: 796.10 ± 179.65 cm | time for reaching the platform [2, 9]: 48.50 ± 15.28 s | adopted strategy for reaching the platform (the peripheral type and the random type %) [2, 10]: 78.13% | orientation angle for reaching the platform [2, 10]: 63.27 ± 10.38 ° | speed for reaching the platform [2, 10]: 20.42 ± 7.24 cm/s | swimming path length for reaching the platform [2, 10]: 772.80 ± 229.71 cm | time for reaching the platform [2, 10]: 51.60 ± 17.26 s | adopted strategy for reaching the platform (the peripheral type and the random type %) [2, 11]: 80.67% | orientation angle for reaching the platform [2, 11]: 66.21 ± 18.35 ° | speed for reaching the platform [2, 11]: 20.89 ± 6.68 cm/s | swimming path length for reaching the platform [2, 11]: 770.70 ± 248.67 cm | time for reaching the platform [2, 11]: 50.40 ± 17.10 s | adopted strategy for reaching the platform (the peripheral type and the random type %) [2, 12]: 80.31% | orientation angle for reaching the platform [2, 12]: 58.23 ± 27.90 ° | speed for reaching the platform [2, 12]: 19.76 ± 10.49 cm/s | swimming path length for reaching the platform [2, 12]: 760.80 ± 277.08 cm | time for reaching the platform [2, 12]: 41.80 ± 11.68 s | adopted strategy for reaching the platform (the peripheral type and the random type %) [2, 13]: 77.37% | orientation angle for reaching the platform [2, 13]: 54.77 ± 18.42 ° | speed for reaching the platform [2, 13]: 20.07 ± 7.36 cm/s | swimming path length for reaching the platform [2, 13]: 737.60 ± 223.46 cm | time for reaching the platform [2, 13]: 53.40 ± 23.24 s | adopted strategy for reaching the platform (the peripheral type and the random type %) [2, 14]: 75.48% | orientation angle for reaching the platform [2, 14]: 52.93 ± 17.44 ° | speed for reaching the platform [2, 14]: 20.00 ± 8.73 cm/s | swimming path length for reaching the platform [2, 14]: 584.50 ± 181.92 cm | time for reaching the platform [2, 14]: 40.50 ± 20.47 s | adopted strategy for reaching the platform (the peripheral type and the random type %) [2, 15]: 70.66% | orientation angle for reaching the platform [2, 15]: 57.32 ± 31.22 ° | speed for reaching the platform [2, 15]: 22.17 ± 13.09 cm/s | swimming path length for reaching the platform [2, 15]: 685.10 ± 319.17 cm | time for reaching the platform [2, 15]: 38.10 ± 22.41 s | adopted strategy for reaching the platform (the peripheral type and the random type %) [2, 16]: 71.34% | orientation angle for reaching the platform [2, 16]: 51.48 ± 11.38 ° | speed for reaching the platform [2, 16]: 20.53 ± 11.21 cm/s | swimming path length for reaching the platform [2, 16]: 653.50 ± 321.17 cm | time for reaching the platform [2, 16]: 36.00 ± 20.42 s | adopted strategy for reaching the platform (the peripheral type and the random type %) [2, 17]: 68.99% | orientation angle for reaching the platform [2, 17]: 50.22 ± 18.92 ° | speed for reaching the platform [2, 17]: 21.48 ± 9.09 cm/s | swimming path length for reaching the platform [2, 17]: 544.70 ± 179.35 cm | time for reaching the platform [2, 17]: 37.00 ± 17.54 s | adopted strategy for reaching the platform (the peripheral type and the random type %) [2, 18]: 71.53% | orientation angle for reaching the platform [2, 18]: 54.22 ± 28.34 ° | speed for reaching the platform [2, 18]: 21.30 ± 9.86 cm/s | swimming path length for reaching the platform [2, 18]: 563.90 ± 154.71 cm | time for reaching the platform [2, 18]: 36.20 ± 27.16 s | adopted strategy for reaching the platform (the peripheral type and the random type %) [2, 19]: 69.33% | orientation angle for reaching the platform [2, 19]: 53.62 ± 17.88 ° | speed for reaching the platform [2, 19]: 22.73 ± 17.69 cm/s | swimming path length for reaching the platform [2, 19]: 562.80 ± 280.10 cm | time for reaching the platform [2, 19]: 33.50 ± 21.95 s | adopted strategy for reaching the platform (the peripheral type and the random type %) [2, 20]: 67.59% | orientation angle for reaching the platform [2, 20]: 51.22 ± 20.11 ° | speed for reaching the platform [2, 20]: 21.90 ± 10.66 cm/s | swimming path length for reaching the platform [2, 20]: 481.50 ± 203.96 cm | time for reaching the platform [2, 20]: 30.10 ± 15.85 s | adopted strategy for reaching the platform (the peripheral type and the random type %) [2, 21]: 68.55% | orientation angle for reaching the platform [2, 21]: 52.11 ± 22.00 ° | speed for reaching the platform [2, 21]: 21.55 ± 6.47 cm/s | swimming path length for reaching the platform [2, 21]: 513.30 ± 194.29 cm | time for reaching the platform [2, 21]: 35.90 ± 24.22 s | adopted strategy for reaching the platform (the peripheral type and the random type %) [2, 22]: 65.72% | orientation angle for reaching the platform [2, 22]: 50.65 ± 18.77 ° | speed for reaching the platform [2, 22]: 20.62 ± 7.36 cm/s | swimming path length for reaching the platform [2, 22]: 523.30 ± 182.50 cm | time for reaching the platform [2, 22]: 38.90 ± 22.26 s | adopted strategy for reaching the platform (the peripheral type and the random type %) [2, 23]: 60.14% | orientation angle for reaching the platform [2, 23]: 48.78 ± 16.83 ° | speed for reaching the platform [2, 23]: 18.52 ± 7.78 cm/s | swimming path length for reaching the platform [2, 23]: 540.50 ± 166.77 cm | time for reaching the platform [2, 23]: 36.10 ± 22.34 s
